This note sets out measurements from patent US20230414578A1, “PHARMACEUTICAL COMPOSITION” (KOWA COMPANY, LTD., priority 2017, published 2023).

Structures are written as SMILES. Some results are limits rather than exact numbers.

The nature of data set [1]: Test Example 3: interaction study, visual examination of discoloration. The class given is physicochemical. The protocol: The states (the presence or absence of discoloration) of the samples before the start of storage and after storage at 60°G for 2 weeks were visually examined.
A short description of data set [2]: Test Example 1: storage stability of pemafibrate alone (HPLC related substances). The class given is physicochemical. The protocol:
In Test Examples below, measurement was performed through HPLC using an ODS column as a column and an ultraviolet spectrophotometer as a detector. 250 mg of pemafibrate was encapsulated in a polypropylene container (tight container defined in The Japanese Pharmacopoeia, 17th Edition, General Rules), and stored in a dark place at a temperature of 60° C. for 1 month. The amounts of pemafibrate-derived decomposition products (related substances) before the start of storage and after storage at 60° C. for 1 month were evaluated through the following method. The sum of related substance-derived peak areas was evaluated in terms of a ratio (%) to the pemafibrate-derived peak area using an HPLC apparatus, and the ratio was defined as the “Total amount (%) of related substances”.

As to `CC[C@@H](Oc1cccc(CN(CCCOc2ccc(OC)cc2)c2nc3ccccc3o2)c1)C(=O)O` [Pemafibrate alone, (2R)-2-[3-([1,3-Benzoxazol-2-yl[3-(4-methoxyphenoxy)propyl]amino]methyl)phenoxy]butanoic acid], the “State, Before storage” value in data set [1] (before start of storage) is listed as “White”. The “State, After storage at 60° C. for 2 weeks” value in data set [1] (polypropylene tight container, dark place, 60° C., 2 weeks) is on record as “White”. In data set [2] (after storage at 60° C. for 1 month), the “increase in the amount of related substances (in words)” value is given as “no substantive increase”. For the same compound, in data set [2] (before start of storage, sum of related substance peak areas as ratio to pemafibrate peak area, HPLC), the “Total amount (%) of related substances, Before storage” value is on record as less than 0.05%. Further, the “Total amount (%) of related substances, After storage at 60° C. for 1 month” value in data set [2] (polypropylene tight container, dark place, 60° C., 1 month, HPLC peak area ratio) is reported as less than 0.05%.
